Where a name gives a salt, the structure may show the parent alone.
How the values were obtained:
[1] = clinical; conditions: po, 120 mg
Procedure: (§1) An interval of approximately 5-7 days elapsed between the administration of each agent tested in this example.
(§2) (TM) containing EDTA (ethylenediamine tetraacetic acid) as an anticoagulant just before administration of the test agent; this sample represented the zero time sample. The blood sample was centrifuged for 15 minutes under conditions known to those skilled in the art. The plasma portion of each sample was harvested, frozen and stored at minus 70 degrees Celsius until analysis. At timed intervals after administration, additional blood samples were withdrawn and similarly treated.

[2] = oral, 120 mg diltiazem hydrochloride, after administration; FIG. 6
Procedure: as §1, §2

[3] = tested on: angina pectoris; conditions: cited from earlier work
[4] = cited from earlier work

SMILES: COc1ccc([C@@H]2Sc3ccccc3N(CCN(C)C)C(=O)[C@@H]2OC(C)=O)cc1 [diltiazem hydrochloride]
- Tmax ([1]; human, plasma): 1 to 2 h
- Tmax ([1]; in vivo): 1 to 2 h
- time by which most of the quick release preparation is gone (plasma) [2]: 5 to 6 h

SMILES: COc1ccc([C@@H]2Sc3ccccc3N(CCN(C)C)C(=O)[C@@H]2OC(C)=O)cc1 [diltiazem]
- incidence of side effects compared with other calcium channel blockers ([3]; human, in vivo): lower incidence of side effects
- safety and efficacy in stable and unstable angina pectoris ([3]; reference 1): safe and effective treatment for both stable and unstable angina pectoris
- decrease in bioavailability by first-pass metabolism (loss) ([4]; oral): ≤ 60%
- plasma half-life ([4]; references 17, 19): 2 to 6 h

— patent US6162463A (priority 1998, dated 2000)
